{
  "source": "paper PMC11864979",
  "about": "“First-in-class ultralong-target-residence-time p38α inhibitors as a mitosis-targeted therapy for colorectal cancer” (Nature Cancer, 2025)",
  "key": {"KAP organoids": {"test_system": "KAP organoids", "assay": "cell viability in KAP organoids (CellTiter-Glo)", "format": "cell-based, mouse", "in_short": "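Organoids dissociated to single cells, 1,000–2,000 per well in medium with 10% GFR Matrigel or Cultrex BME; inhibitors or DMSO added 24 h after plating. Viability by CellTiter-Glo 3D or 2.0 luminescence, normalized to DMSO vehicle or shNC.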"}, "PDO6": {"test_system": "PDO6", "assay": "cell viability in patient-derived CRC organoids PDO6", "format": "cell-based, human", "experimental": "(§1) For in vitro treatment studies, organoids were mechanically dissociated and digested using TrypLE supplemented with 100 µg ml^−1 DNaseI and 10.5 µM Y-27632 dihydrochloride (Invitrogen) at 37 °C. A total of 1,000–2,000 single cells were plated per well in white 96-well plates (Greiner) in culture medium containing 10% GFR Matrigel or Cultrex BME. The treatment with doxycycline (5 µg ml^−1), pharmacological inhibitors or corresponding volumes of DMSO was started 24 h after plating. Doxycycline was obtained from Sigma-Aldrich. […] Cell viability was measured by means of CellTiter-Glo 3D or CellTiter-Glo 2.0 reagent (Promega) according to the manufacturers’ instructions and the Infinite M Plex reader (Tecan, i-control version 3.9.1 software). Results were normalized to vehicle (DMSO) or to shNC. For cell-doubling assays, the cell number was quantified at the corresponding time points using Guava EasyCyte flow cytometer (Luminex, CytoSoft v5.2 software)."}, "p38α": {"biological_target": "p38α (Homo sapiens, UniProt Q16539)", "sequence (Q16539 whole entry)": "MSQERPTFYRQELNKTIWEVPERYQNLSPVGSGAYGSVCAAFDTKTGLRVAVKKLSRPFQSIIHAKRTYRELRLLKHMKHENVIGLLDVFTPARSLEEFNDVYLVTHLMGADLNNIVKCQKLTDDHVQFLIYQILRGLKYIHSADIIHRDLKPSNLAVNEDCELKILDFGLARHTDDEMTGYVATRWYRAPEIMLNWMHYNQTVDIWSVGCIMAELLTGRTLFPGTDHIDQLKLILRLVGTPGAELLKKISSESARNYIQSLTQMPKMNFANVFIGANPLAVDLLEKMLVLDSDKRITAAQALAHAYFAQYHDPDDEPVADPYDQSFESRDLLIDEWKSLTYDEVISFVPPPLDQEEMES", "assay": "target residence time (TRT) fluorescence polarization jump-dilution assay", "format": "binding", "experimental": "TRTs were determined using a fluorescence polarization assay kit (Transcreener ADP, BellBrook Labs)[29]. […] The formed complex was ‘jump-diluted’ 1:100 (0.5 µl in 49.5 µl) in a 96-half-area-well plate with ATF2 (82 μM), ATP (40 μM) and ADP as the kinase assay detection reagents. The plate was measured every 3 min for 4 h. Fluorescence polarization was detected using the plate reader VictorNivo (PerkinElmer). The data were analyzed using the integrated rate equation in GraphPad Prism version 7.03 software. The residence time was calculated from the reciprocal value of koff."}, "subcutaneous KAP CRCs": {"test_system": "subcutaneous KAP CRCs", "assay": "treatment of subcutaneous KAP tumors in wild-type mice", "format": "in vivo, mouse", "settings": "Fig. 1j, individual tumors"}, "KAP^2D cells": {"test_system": "KAP^2D cells", "assay": "P-H3^S10 / α-tubulin staining, mitotic phases in KAP^2D cells", "format": "cell-based, mouse", "settings": "replicates, experiment and repetition", "experimental": "Immunofluorescence staining on cells and organoids was performed on glass coverslips or tissue culture chambers (Sarstedt). Organoids were plated in medium containing 10% Matrigel or Cultrex BME. The cultures were fixed with 4% paraformaldehyde and stained with specific antibodies and DAPI (Vector Labs). All used antibodies and dilutions are listed in the Nature Portfolio Reporting Summary. For analyzing DNA synthesis, the Molecular Probes Click-iT EdU Alexa Fluor 555 kit was used 24 h after EdU incorporation with DAPI counterstaining. SA-β-Gal staining of cells was performed in cell culture dishes (cells) or tissue culture chambers (organoids) after fixation with 0.5% glutaraldehyde as described above. Human cultures were incubated with X-Gal solution at pH 6.0 for ~4 h. […] Positive cells were quantified using ImageJ version 1.53a software. The analysis of mitosis was performed with an LSM800 Airyscan (Zeiss) microscope (ZEN version 3.0 software). An Airyscan autofilter processing was applied before image analysis."}, "PDO11": {"test_system": "PDO11", "assay": "cell viability in patient-derived CRC organoids PDO11", "format": "cell-based, human", "experimental": "as §1"}, "RKO": {"test_system": "RKO", "assay": "cell viability in human CRC cell line RKO", "format": "cell-based", "settings": "ED Fig. 9g, replicates", "experimental": "To generate KAP^2D cells, KAP organoids were isolated from Matrigel, fragmented by mechanical dissociation and plated without any extracellular matrix on common cell culture dishes. Phoenix-Eco packaging cells (CRL-3214), HCT-15 (CCL-225), HCT 116 (CCL-247), COLO 205 (CCL-222), LS 174T (CL-188), RKO (CRL-2577) and HT-29 (HTB-38) were obtained from the American Type Culture Collection. The cells were cultured at 37 °C and 7% CO2 with RPMI (KAP^2D cells) or DMEM (other cell lines), supplemented with 10% FBS and penicillin–streptomycin. KAP^2D cells were authenticated using PCR (Kras locus and Trp53 locus). Phoenix-Eco packaging cells and HCT-15, HCT 116, COLO 205, LS 174T, RKO and HT-29 cells were authenticated by the provider using short tandem repeat profiling. No commonly misidentified cell lines were used. Mycoplasma contamination was excluded by a PCR-based analysis.\nas §1"}},
  "note": "Where “and” joins values, the source holds several entries; their conditions need not be identical. Equal values may be shown once. Read-outs that look alike come from different tables or passages of the source.",
  "data": [
    {"compound": "O=C1c2ccc(Nc3ccc(F)cc3F)cc2CCc2ccc(OC[C@H](O)CO)cc21", "note": "[SKL, skepinone-L, reference compound]", "values": [
      {"measurement": "Cell viability (%)", "setting": "KAP organoids; Fig. 1g, 0.5 µM, replicates", "result": "97.57% and 86.81% and 127.06%"},
      {"measurement": "Cell viability (%)", "setting": "KAP organoids; Fig. 1g, 1 µM, replicates", "result": "93.70% and 102.05% and 122.58%"},
      {"measurement": "Cell viability (%)", "setting": "KAP organoids; Fig. 2b, compound screen, replicates", "result": "78.66% and 92.01% and 89.54%"},
      {"measurement": "Cell viability (%)", "setting": "KAP organoids; Fig. 1d, 0.5 µM, replicates", "result": "86.70% and 72.97%"},
      {"measurement": "Cell viability (%)", "setting": "KAP organoids; Fig. 1d, 1 µM, replicates", "result": "91.26% and 93.11%"},
      {"measurement": "Cell viability (%)", "setting": "KAP organoids; Fig. 1d, 5 µM, replicates", "result": "88.80% and 85.26%"},
      {"measurement": "Cell viability (%)", "setting": "KAP organoids; Fig. 1d, 10 µM, replicates", "result": "80.68% and 88.78% and 66.49%"},
      {"measurement": "viability at 0.5 µM", "setting": "KAP organoids; Mus musculus, 24 h, read-out: Cell viability (%), Fig. 1d, 0.5 µM, replicates", "result": 90.7, "unit": "%"},
      {"measurement": "viability at 1 µM", "setting": "KAP organoids; Mus musculus, 24 h, read-out: Cell viability (%), Fig. 1d, 1 µM, replicates", "result": 87.6, "unit": "%"},
      {"measurement": "viability at 5 µM", "setting": "KAP organoids; Mus musculus, 24 h, read-out: Cell viability (%), Fig. 1d, 5 µM, replicates", "result": 86.5, "unit": "%"},
      {"measurement": "viability at 1 µM", "setting": "KAP organoids; Mus musculus, read-out: Cell viability (% of DMSO), drug screen in KAP organoids, 1 µM concentration, n = 3, mean", "result": 86.7, "unit": "%"},
      {"measurement": "induction of cell death in KAP organoids (in words)", "setting": "KAP organoids; viability assay", "result": "only a very weak induction of cell death"},
      {"measurement": "viability at 1 µM", "setting": "PDO6; Homo sapiens, 96 h, read-out: Cell viability (%), PDO6, 1 µM, 4 days", "result": 112, "unit": "%"},
      {"measurement": "Cell viability (%)", "setting": "PDO6; PDO6, 0.5 µM, 4 d, 0.5 µM", "result": "101.15% and 118.77% and 80.46%"},
      {"measurement": "Cell viability (%)", "setting": "PDO6; PDO6, 1 µM, 4 days, 1 µM", "result": "110.32% and 93.07%"},
      {"measurement": "TRT", "setting": "p38α; Fig. 2e, replicates", "result": "88.3 s and 94.8 s and 81.2 s"},
      {"measurement": "TRT", "setting": "p38α; reciprocal of koff", "result": 88, "unit": "s"},
      {"measurement": "Tumor volume (mm³)", "setting": "subcutaneous KAP CRCs; day 0 of treatment", "result": "32.0 mm³ and 62.5 mm³ (2×) and 64.0 mm³ and 75.0 mm³ and 31.5 mm³ and 56.0 mm³ (3×) and 40.0 mm³"},
      {"measurement": "Tumor volume (mm³)", "setting": "subcutaneous KAP CRCs; day 2 of treatment", "result": "56.0 mm³ and 100.0 mm³ and 75.0 mm³ and 108.0 mm³ and 36.0 mm³ and 62.5 mm³ and 64.0 mm³ (3×) and 48.0 mm³"},
      {"measurement": "Tumor volume (mm³)", "setting": "subcutaneous KAP CRCs; day 4 of treatment", "result": "100.0 mm³ and 108.0 mm³ and 87.5 mm³ and 126.0 mm³ and 48.0 mm³ and 75.0 mm³ (4×) and 56.0 mm³"},
      {"measurement": "Tumor volume (mm³)", "setting": "subcutaneous KAP CRCs; day 6 of treatment", "result": "100.0 mm³ (2×) and 112.5 mm³ and 171.5 mm³ and 144.0 mm³ and 56.0 mm³ and 75.0 mm³ (2×) and 108.0 mm³ and 62.5 mm³"},
      {"measurement": "Tumor volume (mm³)", "setting": "subcutaneous KAP CRCs; day 8 of treatment", "result": "144.0 mm³ and 180.0 mm³ (2×) and 162.0 mm³ and 72.0 mm³ and 108.0 mm³ and 126.0 mm³ and 87.5 mm³ and 112.5 mm³ (2×)"},
      {"measurement": "Tumor volume (mm³)", "setting": "subcutaneous KAP CRCs; day 10 of treatment", "result": "180.0 mm³ (2×) and 245.0 mm³ and 171.5 mm³ and 112.5 mm³ and 126.0 mm³ (3×) and 144.0 mm³ and 108.0 mm³"},
      {"measurement": "Tumor volume (mm³)", "setting": "subcutaneous KAP CRCs; day 12 of treatment", "result": "245.0 mm³ and 320.0 mm³ and 196.0 mm³ (3×) and 125.0 mm³ and 171.5 mm³ (2×) and 162.0 mm³ and 144.0 mm³"},
      {"measurement": "Anaphase, % (of fully P-H3S10+ cells)", "setting": "KAP^2D cells; Fig. 4f", "result": "10.84% and 8.57% and 15.15% and 12.31% and 9.21% and 11.59%"},
      {"measurement": "Metaphase, % (of fully P-H3S10+ cells)", "setting": "KAP^2D cells; Fig. 4f", "result": "25.30% and 20.00% and 30.30% and 29.23% and 25.00% and 27.54%"},
      {"measurement": "Multipolar mitosis, % (of fully P-H3S10+ cells)", "setting": "KAP^2D cells; Fig. 4f", "result": "3.61% and 2.86% and 6.06% and 3.08% and 3.95% and 8.70%"},
      {"measurement": "Telophase, % (of fully P-H3S10+ cells)", "setting": "KAP^2D cells; Fig. 4f", "result": "8.43% and 9.52% and 12.12% and 10.77% and 13.16% and 15.94%"},
      {"measurement": "P-H3S10+ cells, fully positive", "setting": "KAP^2D cells; Fig. 4d", "result": "4.75% and 6.25% and 2.15% and 4.12% and 5.03% and 3.69%"},
      {"measurement": "P-H3S10+ cells, partially positive", "setting": "KAP^2D cells; Fig. 4d", "result": "6.47% and 7.85% and 5.54% and 6.84% and 8.15%"},
      {"measurement": "viability at 0.5 µM", "setting": "PDO11; Homo sapiens, 96 h, read-out: Cell viability (%), PDO11, 0.5 µM, 4 d", "result": 105, "unit": "%"},
      {"measurement": "Cell viability (%)", "setting": "PDO11; PDO11, 0.5 µM, 4 d, 0.5 µM", "result": "108.79% and 91.94%"},
      {"measurement": "Cell viability (%)", "setting": "PDO11; PDO11, 1 µM, 4 days, 1 µM", "result": "107.20% and 119.15% and 97.40%"},
      {"measurement": "RKO Cell viability (%)", "setting": "RKO; 0.0137 µM, Repetition", "result": "119.75% and 114.04%"},
      {"measurement": "RKO Cell viability (%)", "setting": "RKO; 0.0137 µM, first experiment", "result": "97.01% and 95.97%"},
      {"measurement": "RKO Cell viability (%)", "setting": "RKO; 0.0412 µM, Repetition", "result": "110.50% and 104.43%"}
    ]}
  ]
}
